US10052311B2, “PPAR compounds for use in the treatment of fibrotic diseases” (INVENTIVA, priority 2014, dated 2018)
Values joined by “and” are separate entries in the source; they are usually repeats but may differ in a detail not shown here. Equal values may be shown once.

What was measured:
[1] = system: primary human lung fibroblasts; test: TGFβ-induced fibroblasts to myofibroblasts transition (FMT), α-SMA immunocytochemistry; type: cell-based; conditions: Fibroblast, α-SMA-positive cells, 48 h, NC: not converged
Protocol: (§1) The ability of compound A to inhibit TGFβ-induced lung and dermal fibroblasts to myofibroblasts transition (FMT) was determined by performing immunocytochemistry assays for the myofibroblast marker, α-smooth muscle actin (α-SMA). These assays were carried out using primary human lung or skin fibroblasts (Promocell). The cells were plated in 96-well plates in full growth medium for 24 h, followed by 24 h starvation in serum-free medium. The medium was then replaced by fresh medium containing TGFβ and compound A to be tested (at concentrations ranging from 10^−4 M to 4.5 10^−8 M) for another 48 h. The culture medium was then removed, the cells were fixed with formaldehyde and stained with a primary mouse α-SMA antibody (Sigma) and secondary fluorescence-labelled goat-anti-mouse antibody (Invitrogen). α-SMA expression was quantified using Meta Xpress software. […] Results were expressed as % of α-SMA-positive cells out of the total cell number. The data was normalised to the TGFβ treatment alone, which was taken as 100%. The results present the mean of biological triplicates. Dose-effect curves and IC50 values were calculated using the GraphPad Prism software.

[2] = system: primary human dermal fibroblasts; test: as above; type: cell-based; conditions: Fibroblast, α-SMA-positive cells, 48 h, NC: not converged
Protocol: as §1

CCl4-exposed mice = test: Carbon tetrachloride (CCl4)-induced liver fibrosis in mice; type: in vivo, mouse; conditions: vs vehicle
Protocol: Mice were allowed to habituate for at least 5 days prior to experimentation.
Sunflower oil (twice a week for 3 weeks, ip)/vehicle (once a day for 22 days po), n=7, • 2. […] CCl4 (3.5 mL/kg, twice a week for 3 weeks, ip)/vehicle (once a day for 22 days po), n=8 • 5.
Two days a week for 3 weeks, mice were intraperitoneally administered in the morning with either 100 μL of CCl4 (3.5 mL kg in sunflower oil (v/v, 1/11)) or 100 μL of sunflower oil.
Measured Parameters Collagen
mRNA extraction was performed on small frozen liver samples (50-100 mg).

[3] = system: primary human lung fibroblasts; test: PDGF-induced proliferation, EdU incorporation assay; type: cell-based; conditions: Fibroblast, 24 h, NC: not converged
Protocol: (§2) The ability of compound A to inhibit PDGF-induced lung and dermal fibroblasts proliferation was determined by performing EdU (5-ethynyl-2′-deoxyuridine) incorporation assays. These assays were carried out using primary human lung or skin fibroblasts (Promocell). The cells were plated in 96-well plates in full growth medium for 24 h, followed by 24 h starvation in serum-free medium. The medium was then replaced by fresh medium containing PDGF and compound A to be tested (at concentrations ranging from 10^−4 M to 4.5 10^−8 M) for another 24 h. EdU was added to the cells for the last 16 h of the compound treatment. The culture medium was then removed, the cells were fixed with formaldehyde and the EdU incorporated in the DNA of diving cells was quantified using fluorescent Click-it assay according to the manufacturer's instructions (Invitrogen). […] Results were expressed as % of EdU-positive cells out of the total cell number. The results present the mean of biological triplicates. Dose-effect curves and IC50 values were calculated using the GraphPad Prism software.

[4] = system: primary human dermal fibroblasts; test: as above; type: cell-based; conditions: Fibroblast, 24 h, NC: not converged
Protocol: as §2

O=C(O)CCCc1cc2cc(Cl)ccc2n1S(=O)(=O)c1ccc2ncsc2c1 [compound A, 5-Chloro-1-[(6-benzothiazolyl)sulfonyl]-1H-indole-2-butanoic acid]
IC50 [1]: 10.8 µM
IC50 [2]: ~11.2 µM
Col1a expression (liver) (CCl4-exposed mice; 30 mg/kg/day po 22 days): significantly inhibited the expression of Col1a
TGFβ-1 expression (liver) (CCl4-exposed mice; 30 mg/kg/day po 22 days): significantly inhibited the expression of TGFβ-1
decrease of collagen levels (hepatic fibrosis) (CCl4-exposed mice; 30 mg/kg/day po 22 days): 80%
fibronectin expression (liver) (CCl4-exposed mice; 30 mg/kg/day po 22 days): significantly inhibited the expression of fibronectin
plasma triglycerides (CCl4-exposed mice; 30 mg/kg/day po 22 days): significantly reduced plasma triglycerides
Col1a expression (liver) (CCl4-exposed mice; 100 mg/kg/day po 22 days): significantly inhibited the expression of Col1a
MCP-1 expression (liver) (CCl4-exposed mice; 100 mg/kg/day po 22 days): significantly inhibited the expression of MCP-1
TGFβ-1 expression (liver) (CCl4-exposed mice; 100 mg/kg/day po 22 days): significantly inhibited the expression of TGFβ-1
fibronectin expression (liver) (CCl4-exposed mice; 100 mg/kg/day po 22 days): significantly inhibited the expression of fibronectin
plasma triglycerides (CCl4-exposed mice; 100 mg/kg/day po 22 days): significantly reduced plasma triglycerides
α-SMA expression (liver) (CCl4-exposed mice; 100 mg/kg/day po 22 days): inhibited the expression of α-SMA compared to vehicle without reaching significance
decrease of collagen levels (hepatic fibrosis) (CCl4-exposed mice; 100 mg/kg/day po 22 days, 100 mg/kg/day): 89% and 90%
IC50 [3]: 10.9 µM
IC50 [4]: 11.5 µM
